From US9227969B2, “Compounds and compositions as inhibitors of MEK” (NOVARTIS AG, priority 2013, dated 2016)
Like-named read-outs stand apart in the source and are kept apart here.

How the values were obtained:
[1] = biological target: T1, human full length MEK1 kinase (Homo sapiens (Human), UniProt Q02750); test: biochemical
Source text: (§2) A BRAF-MEK-ERK cascade assay is used to evaluate the effects of these compounds as inhibitors of the MAP kinase pathway. […] TR-FRET (Time resolved fluorescence resonance energy transfer) detection technology is used for the read out.

[2] = biological target: T1, human full length MEK1 kinase; conditions: read-out: MEK1 1 mM ATP IC50, BRAF-MEK-ERK cascade
Source text: as §2

[3] = biological target: LCK (Homo sapiens (Human), UniProt P06239); test: Kinase Panel screen: LCK; type: biochemical
LCK, sequence (P06239 whole entry, species assumed): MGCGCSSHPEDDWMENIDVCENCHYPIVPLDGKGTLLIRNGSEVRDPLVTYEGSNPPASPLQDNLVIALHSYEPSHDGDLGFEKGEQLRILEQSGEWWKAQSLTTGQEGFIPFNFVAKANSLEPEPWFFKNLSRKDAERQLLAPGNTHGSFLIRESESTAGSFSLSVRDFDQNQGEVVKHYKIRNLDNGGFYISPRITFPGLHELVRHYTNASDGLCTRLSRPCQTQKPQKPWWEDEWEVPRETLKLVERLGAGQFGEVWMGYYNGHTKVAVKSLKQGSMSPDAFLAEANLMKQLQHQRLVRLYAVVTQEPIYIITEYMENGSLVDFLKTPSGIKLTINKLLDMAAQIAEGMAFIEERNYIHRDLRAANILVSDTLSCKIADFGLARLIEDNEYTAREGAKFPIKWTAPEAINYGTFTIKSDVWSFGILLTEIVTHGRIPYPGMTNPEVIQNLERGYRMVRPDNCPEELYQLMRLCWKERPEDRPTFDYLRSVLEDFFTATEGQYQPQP
Source text: (§1) Compounds of the invention are screened, using assay conditions known in the art, against some or all of the “Kinase Panel” comprising ABL1, ABL1 (T315I), ACVR1, AKT1, ALK, AURKA, AXL, BTK, CAMK2D, CDK1B, CDK2A, CDK4D1, CSK, CSNK1G3, EGFR, EPHA4, EPHB4, ERBB4, FGFR1, FGFR2, FGFR3, FGFR3 (K650E), FGFR4, FLT3 (D835Y), IGF1R, GSK3B, INSR, IRAK4, JAK1, JAK2, JAK3, KDR, KIT, LCK, LYN, MAP3K8, MAPK1, MAPK10, MAPK14, MAPKAPK2, MAPKAPK5, MET, MKNK1, MKNK2, PAK2, PDGFRa, PDPK1, PIM2, PKN1, PKN2, PLK1, PRKACA, PRKCA, PRKCQ, RET, ROCK2, RPS6 KB1, SRC, SYK, TYK2, WNK1, ZAP70, PIKSCD, PIK3CG, MTOR, PIK3C3, PIK3CA, PIK3CB and PIK4CB.

[4] = biological target: LYN (Homo sapiens (Human), UniProt P07948); test: Kinase Panel screen: LYN; type: biochemical
LYN, sequence (P07948 whole entry, species assumed): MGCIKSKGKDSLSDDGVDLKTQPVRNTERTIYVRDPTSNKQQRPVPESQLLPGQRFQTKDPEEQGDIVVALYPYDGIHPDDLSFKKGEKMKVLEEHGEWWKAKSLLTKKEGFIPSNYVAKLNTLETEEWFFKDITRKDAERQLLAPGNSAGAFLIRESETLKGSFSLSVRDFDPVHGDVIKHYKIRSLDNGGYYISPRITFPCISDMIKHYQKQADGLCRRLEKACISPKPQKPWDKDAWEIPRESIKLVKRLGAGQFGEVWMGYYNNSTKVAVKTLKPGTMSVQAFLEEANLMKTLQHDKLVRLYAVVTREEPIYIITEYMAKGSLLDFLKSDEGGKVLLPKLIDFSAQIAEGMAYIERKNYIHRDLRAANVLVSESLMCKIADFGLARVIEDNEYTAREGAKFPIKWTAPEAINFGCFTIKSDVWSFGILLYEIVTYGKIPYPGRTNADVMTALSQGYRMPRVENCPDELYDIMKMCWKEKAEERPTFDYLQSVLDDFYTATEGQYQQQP
Source text: as §1

[5] = biological target: PDGFRa (Homo sapiens (Human), UniProt P16234); test: Kinase Panel screen: PDGFRa; type: biochemical
PDGFRa, sequence (P16234 24-1089, species assumed): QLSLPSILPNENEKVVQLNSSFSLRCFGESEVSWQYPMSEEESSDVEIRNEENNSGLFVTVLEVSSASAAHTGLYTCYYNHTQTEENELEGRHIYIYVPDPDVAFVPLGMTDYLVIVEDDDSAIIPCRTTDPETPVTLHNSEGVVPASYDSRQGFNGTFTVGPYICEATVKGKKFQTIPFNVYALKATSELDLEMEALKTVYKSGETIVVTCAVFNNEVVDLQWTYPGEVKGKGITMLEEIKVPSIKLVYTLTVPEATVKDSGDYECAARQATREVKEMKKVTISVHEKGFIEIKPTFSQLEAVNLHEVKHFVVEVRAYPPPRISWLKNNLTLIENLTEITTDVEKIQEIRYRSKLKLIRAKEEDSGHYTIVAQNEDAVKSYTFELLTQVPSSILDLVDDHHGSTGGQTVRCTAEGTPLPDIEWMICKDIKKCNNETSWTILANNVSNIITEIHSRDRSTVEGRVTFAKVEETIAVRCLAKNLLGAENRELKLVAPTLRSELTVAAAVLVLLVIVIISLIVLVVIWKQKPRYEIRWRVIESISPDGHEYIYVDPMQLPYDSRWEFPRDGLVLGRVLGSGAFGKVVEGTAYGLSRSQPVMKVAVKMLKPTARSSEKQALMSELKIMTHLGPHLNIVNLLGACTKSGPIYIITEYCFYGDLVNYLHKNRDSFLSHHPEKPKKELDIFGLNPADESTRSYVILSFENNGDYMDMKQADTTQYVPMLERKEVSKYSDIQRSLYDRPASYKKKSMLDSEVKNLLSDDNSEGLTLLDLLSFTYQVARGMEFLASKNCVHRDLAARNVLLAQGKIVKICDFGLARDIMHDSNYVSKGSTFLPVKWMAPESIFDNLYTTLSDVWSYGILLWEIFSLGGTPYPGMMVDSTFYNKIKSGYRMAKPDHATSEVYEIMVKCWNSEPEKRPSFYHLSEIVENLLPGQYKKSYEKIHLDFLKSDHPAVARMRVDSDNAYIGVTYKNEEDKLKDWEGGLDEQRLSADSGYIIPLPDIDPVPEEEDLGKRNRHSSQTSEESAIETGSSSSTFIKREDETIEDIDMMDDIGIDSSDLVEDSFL
Source text: as §1

[6] = biological target: ABL1 (Homo sapiens (Human), UniProt P00519); test: Kinase Panel screen: ABL1; type: biochemical
ABL1, sequence (P00519 whole entry, species assumed): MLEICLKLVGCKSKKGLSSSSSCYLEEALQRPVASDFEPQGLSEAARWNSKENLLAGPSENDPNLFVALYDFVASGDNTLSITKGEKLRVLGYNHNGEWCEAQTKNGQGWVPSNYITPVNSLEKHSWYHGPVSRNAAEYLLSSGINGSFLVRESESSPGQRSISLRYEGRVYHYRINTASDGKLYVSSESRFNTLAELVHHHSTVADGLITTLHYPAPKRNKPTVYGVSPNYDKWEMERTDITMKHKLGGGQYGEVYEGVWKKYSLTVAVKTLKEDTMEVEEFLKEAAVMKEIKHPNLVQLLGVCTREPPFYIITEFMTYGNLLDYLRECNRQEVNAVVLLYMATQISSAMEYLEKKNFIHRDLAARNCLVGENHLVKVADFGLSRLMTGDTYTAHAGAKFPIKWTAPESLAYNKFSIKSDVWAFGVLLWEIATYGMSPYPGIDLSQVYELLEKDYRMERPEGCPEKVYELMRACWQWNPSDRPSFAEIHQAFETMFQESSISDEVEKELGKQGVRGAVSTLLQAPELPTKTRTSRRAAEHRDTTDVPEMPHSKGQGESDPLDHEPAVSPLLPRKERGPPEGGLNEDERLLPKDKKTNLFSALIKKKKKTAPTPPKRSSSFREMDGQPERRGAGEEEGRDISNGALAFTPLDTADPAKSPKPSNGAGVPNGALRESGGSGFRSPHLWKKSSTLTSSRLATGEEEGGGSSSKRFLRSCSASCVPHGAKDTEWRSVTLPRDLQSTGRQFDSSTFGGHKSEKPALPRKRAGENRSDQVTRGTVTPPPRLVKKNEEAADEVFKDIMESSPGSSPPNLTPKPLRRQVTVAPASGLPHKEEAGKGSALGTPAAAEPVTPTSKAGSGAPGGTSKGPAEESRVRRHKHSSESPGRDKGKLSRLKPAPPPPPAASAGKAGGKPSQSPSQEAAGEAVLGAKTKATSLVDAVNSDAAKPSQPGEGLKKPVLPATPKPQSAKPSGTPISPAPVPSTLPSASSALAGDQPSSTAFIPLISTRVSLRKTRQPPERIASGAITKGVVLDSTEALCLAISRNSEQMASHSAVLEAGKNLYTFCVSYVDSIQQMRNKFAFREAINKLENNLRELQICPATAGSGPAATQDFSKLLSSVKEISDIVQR
Source text: as §1

T1 sequence (Q02750 whole entry): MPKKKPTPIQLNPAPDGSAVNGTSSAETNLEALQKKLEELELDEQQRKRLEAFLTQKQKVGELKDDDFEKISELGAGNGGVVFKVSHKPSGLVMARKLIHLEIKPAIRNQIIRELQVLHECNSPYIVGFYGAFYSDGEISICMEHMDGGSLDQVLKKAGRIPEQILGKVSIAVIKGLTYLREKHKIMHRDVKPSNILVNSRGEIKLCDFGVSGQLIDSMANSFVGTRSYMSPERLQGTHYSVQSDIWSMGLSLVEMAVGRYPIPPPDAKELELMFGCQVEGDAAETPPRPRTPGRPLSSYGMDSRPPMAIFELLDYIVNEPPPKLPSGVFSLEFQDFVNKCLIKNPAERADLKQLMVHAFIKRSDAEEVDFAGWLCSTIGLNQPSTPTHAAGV

| Structure (SMILES) | IC50 [1] | IC50 [2] | IC50 [3] | IC50 [4] | IC50 [5] | IC50 [6] |
| --- | --- | --- | --- | --- | --- | --- |
| Cc1nc2cnc3cc(F)c(-c4ccc(Oc5ncccn5)cc4Cl)cc3c2n1[C@H]1CCN(C(=O)CO)C[C@@H]1F [Example 1A, 1-((3S,4S)-4-(8-(2-chloro-4-(pyrimidin-2-yloxy)phenyl)-7-fluoro-2-methyl-1H-imidazo[4,5-c]quinolin-1-yl)-3-fluoropiperidin-1-yl)-2-hydroxyethanone] | 0.005 µM | 0.005 µM | – | – | – | – |
| Cc1nc2cnc3cc(F)c(-c4ccc(Oc5ncccn5)cc4Cl)cc3c2n1[C@@H]1CCN(C(=O)CO)C[C@H]1F [Example 1B, 1-((3R,4R)-4-(8-(2-chloro-4-(pyrimidin-2-yloxy)phenyl)-7-fluoro-2-methyl-1H-imidazo[4,5-c]quinolin-1-yl)-3-fluoropiperidin-1-yl)-2-hydroxyethanone] | 0.138 µM | 0.138 µM | – | – | – | – |
| COc1cc(Oc2ccccn2)ccc1-c1ccc2ncc3ncn(-c4ccc(CC#N)cc4)c3c2c1 [compound (B)] | – | – | 0.007 µM | 0.03 µM | 0.05 µM | 0.02 µM |
